The values that follow come from patent US9422239B1, “Dual PPAR-δ PPAR-γ agonists” (Auburn University, priority 2013, dated 2016).

Each structure is given as a SMILES string. “Also recorded” adds a separate entry of the source.

Data set [1] deals with C2C12 skeletal muscle cells. Briefly: Mitochondrial biogenesis markers by quantitative RT-PCR. The class given is cell-based. The note with it: 4 days. As for the experimental part: Therefore, to test the effects of the novel compounds on mitochondrial biogenesis, C2C12 skeletal muscle cells were cultured and treated with the novel compounds for 4 days. Changes associated with markers for mitochondrial biogenesis were determined by quantitative real time PCR.

The next data set has as its target T1, PPARδ (PDK4-PPRE) (Homo sapiens, UniProt Q03181).
T1 construct: expressed in transfected cells; host or cells: HEK-293
T1 sequence (Q03181 1-441): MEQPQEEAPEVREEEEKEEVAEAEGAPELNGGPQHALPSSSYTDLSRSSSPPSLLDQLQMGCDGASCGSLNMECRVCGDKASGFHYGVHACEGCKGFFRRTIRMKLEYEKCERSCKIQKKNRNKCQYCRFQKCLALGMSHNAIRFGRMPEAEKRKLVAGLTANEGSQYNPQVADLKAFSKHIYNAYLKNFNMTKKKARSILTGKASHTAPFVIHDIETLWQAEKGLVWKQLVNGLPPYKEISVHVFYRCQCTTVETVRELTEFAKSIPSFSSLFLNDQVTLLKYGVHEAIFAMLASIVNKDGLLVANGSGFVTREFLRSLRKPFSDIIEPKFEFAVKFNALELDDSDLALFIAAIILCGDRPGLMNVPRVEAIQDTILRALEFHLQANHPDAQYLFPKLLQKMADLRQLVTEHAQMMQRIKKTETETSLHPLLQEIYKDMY
T1 sequence (P19793 1-462 partner): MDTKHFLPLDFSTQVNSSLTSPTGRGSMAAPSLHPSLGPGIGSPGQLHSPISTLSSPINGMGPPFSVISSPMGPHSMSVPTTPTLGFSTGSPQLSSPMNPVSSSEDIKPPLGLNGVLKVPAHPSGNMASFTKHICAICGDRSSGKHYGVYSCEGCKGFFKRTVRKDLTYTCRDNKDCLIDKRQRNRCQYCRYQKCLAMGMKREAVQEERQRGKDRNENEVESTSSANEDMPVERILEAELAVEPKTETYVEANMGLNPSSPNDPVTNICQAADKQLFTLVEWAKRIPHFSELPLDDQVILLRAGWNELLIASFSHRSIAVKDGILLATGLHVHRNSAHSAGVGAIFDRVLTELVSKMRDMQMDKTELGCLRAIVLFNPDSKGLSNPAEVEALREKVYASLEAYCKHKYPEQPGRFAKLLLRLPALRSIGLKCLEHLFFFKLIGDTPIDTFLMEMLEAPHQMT
The experiment in a line: PDK4-PPRE luciferase assay in HEK-293 cells. The class given is cell-based. An excerpt:
(§1) To validate the specificity of the novel compounds towards activation of PPARγ/δ targets, we tested the compounds capacity to bind to select PPARγ/δ Peroxisome Proliferator Response Elements (PPRE). The PPRE are unique sites located in the promoter region where PPARs bind and transcriptionally activate the target genes. AP2-PPRE is the PPARγ target involved in adipocyte growth and differentiation. PDK4-PPRE is a PPARδ target involved in regulating energy metabolism in the cell. These PPREs were inserted into a PGL3 luciferase vectors containing CMV promoters (ADDGENE) using PCR. These vectors were co-transfected with RXR, PPARγ/PPARδ and p-galactosidase vectors into HEK-293 cells using Lipofectamine 2000 (Invitrogen). Relative light units (RLU) were measured using a Glomax Luminometer (Promega). Data were standardized to p-galactosidase activity using ONPG (Promega).

The target of a further data set is T2, PPARγ (AP2-PPRE) (Homo sapiens, UniProt P37231).
T2 construct: expressed in transfected cells; host or cells: HEK-293
T2 sequence (P37231 1-505): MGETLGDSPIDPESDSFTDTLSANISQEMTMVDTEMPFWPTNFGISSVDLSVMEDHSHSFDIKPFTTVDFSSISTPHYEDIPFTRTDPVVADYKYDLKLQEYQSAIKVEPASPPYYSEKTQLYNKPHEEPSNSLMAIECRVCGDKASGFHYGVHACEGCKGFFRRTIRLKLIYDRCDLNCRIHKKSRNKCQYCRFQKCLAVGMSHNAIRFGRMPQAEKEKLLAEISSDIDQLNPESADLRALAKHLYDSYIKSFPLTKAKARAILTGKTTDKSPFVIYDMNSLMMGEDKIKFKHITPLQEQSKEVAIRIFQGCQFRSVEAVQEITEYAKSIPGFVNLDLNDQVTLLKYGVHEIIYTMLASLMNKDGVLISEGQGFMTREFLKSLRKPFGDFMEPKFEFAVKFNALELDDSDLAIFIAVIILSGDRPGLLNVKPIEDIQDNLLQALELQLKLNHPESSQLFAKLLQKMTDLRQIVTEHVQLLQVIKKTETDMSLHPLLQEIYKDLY
T2 sequence (P19793 1-462 partner): T1 sequence (P19793 1-462 partner)
The experiment in a line: AP2-PPRE luciferase assay in HEK-293 cells. The class given is cell-based.
Source text: as §1

The nature of data set [2]: Accumulation in the brain after repeated dosing. The class given is in vivo, mice. The note with it: 10 mg/kg, after 3 weeks. As for the experimental part: Thus, a 10 mg/kg dose for 4 weeks can be administered.
The next data set has as its system PPARγ targets. Briefly: PPARγ target gene (mRNA) expression in hippocampi by qRT-PCR. The class given is in vivo, mice. The note with it: 1 mg/kg orally, compared to rosiglitazone (ICV) and control. The method, then: Male C57/b16 and leptin deficient (db/db) mice were purchased from Jackson Laboratories (Bar Harbor, Me.). Animals were maintained in 12 hours of dark-light cycle. […] Both drugs were suspended in sterile saline. Four additional groups comprised the control portion of the study and received physiological saline in the place of the drug treatment either orally or by ICV. […] All treatments extended for 2 weeks.
Total RNA was isolated from hippocampi using RNAeasy Lipid Tissue Mini Kit (Qiagen, Valencia, Calif.) and was converted to cDNA (iScript cDNA synthesis kit—Bio Rad, Hercules, Calif.). Real-time PCR was performed in triplicate using a RT2 SYBR Green/Fluorescein fast master mix (SA-Bioscience) and an iCycler real-time PCR thermocycler (Bio-Rad). Gene expression was normalized to β-actin. Relative gene expression was determined by the comparative CT method (30). The data is presented as mean+/−SEM.
A general note: In qPCR the cycle at which signal appears reflects the starting amount.

The subject of the next data set is db/db mice. The experiment in a line: Y maze behavioral test, compound 9. The class given is in vivo. The note with it: oral, 1 mg/kg. The method, then: Groups of mice can be subjected to Y-maze tests and object recognition tests (ORT) to determine the improvement of working and declarative memory. Briefly the Y-maze test involves the novel arm being blocked, so mice are allowed to explore the other two arms for 15 minutes. Appropriate external and internal cues are assigned for each arm. After 15 minute training sessions, the mice are caged in the same room for 4 hours (holding session) followed by the novel arm exploration where mice are allowed to explore the novel arm for […].

Data set [3] is described as follows: Heart size (heart weight to body weight ratio). The class given is in vivo. The note with it: 10 mg/kg oral daily for 1 month, wild type and db/db mice. As for the experimental part:
Diabetic db/db mice were fed a normal rodent chow diet. […] Mice were then weighed and their hearts were extracted and weighed. The heart weight of the mice compared to the body weight of the mice was then calculated based upon heart weight to body weight ratio.

`Cc1ccc(CNCCCN(Cc2ccc(C(=O)O)cc2)Cc2cc(C(F)(F)F)cc(C(F)(F)F)c2)cc1` [Compound 9]: in data set [1], the “Cytochrome oxidase c 4-2 subunit expression” value is reported as “significantly increased” and the “Gene expression of mitochondrial markers” value was “increases”. Moreover, the “Binding affinity for the PDK4-PPRE” value at PPARδ (PDK4-PPRE) was “strong binding affinity”. The “Binding affinity for the AP2-PPRE” value at PPARγ (AP2-PPRE) (luciferase assay, HEK-293 cells, 10 μM) is listed as “less binding affinity”. For the same compound, the “Activation of the AP2-PPRE” value on PPARγ (AP2-PPRE) (transcriptional assays) is on record as “minimally activates”. Also, the “Accumulation in the brain” value in data set [2] was “accumulate in the brain”. In the data set on PPARγ targets, the “Activation of PPARγ targets in hippocampi (mRNA expression)” value is listed as “selective activation of PPARγ targets”. The “Cognition in Y maze behavioral tests” value with db/db mice is given as “improves cognition”. In addition, the Heart size result in data set [3] was “lacks increase in heart size; also recorded: decreased heart size”.
